In EP2272817A1, “PAI-1 INHIBITOR” (Institute of Medicinal Molecular Design, Inc., priority 2008, dated 2009) one finds inhibition data, which are given here for 31 compounds.

Structures are written as SMILES. Where two headings read alike, the source gives them in different places.

This assay addresses recombinant human PAI-1 (Homo sapiens, UniProt P05121). The assay can be described thus: biochemical.
The mark [1] stands for this setting: read-out: Inhibition Rate of PAI-1 Activity (%).
Setting [2] is: read-out: Inhibition Rate of PAI Activity (%).
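Note: PAI-1 preincubated with compound, then two-chain tPA added, residual tPA activity read with fluorogenic Pyr-Gly-Arg-MCA substrate after 30 min at room temperature.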

recombinant human PAI-1, sequence (P05121 24-402): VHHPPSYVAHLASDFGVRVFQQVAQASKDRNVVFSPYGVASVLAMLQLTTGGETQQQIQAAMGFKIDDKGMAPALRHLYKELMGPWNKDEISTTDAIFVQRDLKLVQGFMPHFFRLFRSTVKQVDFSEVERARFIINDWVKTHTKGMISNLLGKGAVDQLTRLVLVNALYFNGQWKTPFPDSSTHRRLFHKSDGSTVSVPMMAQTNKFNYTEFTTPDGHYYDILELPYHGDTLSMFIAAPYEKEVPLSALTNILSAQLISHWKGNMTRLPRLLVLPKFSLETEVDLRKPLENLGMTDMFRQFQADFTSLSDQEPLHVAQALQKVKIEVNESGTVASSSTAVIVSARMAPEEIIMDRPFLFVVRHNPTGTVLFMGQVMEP

On to `O=C(O)CCc1cc(-c2ccc(OC(F)(F)F)cc2)ccc1OCCCCCc1ccccc1` [Compound 104], for which, under setting [1], the inhibition (commonly the percentage by which the read-out fell short of the control) at 5 µM was 47%, the inhibition at 10 µM was determined as 77% and the inhibition at 25 µM amounted to 96%.
For `O=C(O)C(=O)N(Cc1ccccc1)c1ccc(Oc2ccc(OC(F)(F)F)cc2)cc1` [Compound 154], under setting [1], the inhibition at 10 µM was 3% and the inhibition at 25 µM was 20%.
The like results for `CSc1ccc(-c2ccc(N(Cc3ccc(C(C)(C)C)cc3)C(=O)C(=O)O)cc2)cc1` [Compound 134] were, in that order, 14% and 75%.
Turning to `CC(C)(Oc1ccc(-c2ccc(OC(F)(F)F)cc2)cc1Oc1ccc(C(C)(C)C)cc1)C(=O)O` [Compound 110], under setting [1], the inhibition at 5 µM came out at 37%, the inhibition at 10 µM was 51% and the inhibition at 25 µM is 83%.
`O=C(O)/C=C/c1cc(-c2ccc(OC(F)(F)F)cc2)ccc1Oc1ccc(OC(F)(F)F)cc1` [Compound 15]: under setting [2], the inhibition at 5 µM came to 23%, the inhibition at 10 µM worked out at 47% and the inhibition at 25 µM is 94%.
`CC(c1ccc(C(C)(C)C)cc1)N(C(=O)C(=O)O)c1ccc(-c2ccc(OC(F)(F)F)cc2)cc1` (stereo not drawn) [Compound 220]: under setting [1], the inhibition at 5 µM was determined as 51%, the inhibition at 10 µM came out at 86% and the inhibition at 25 µM worked out at 89%.
The like results for `CC(C)(C)c1ccc(COc2ccc(-c3ccc(OC(F)(F)F)cc3)cc2COCC(=O)O)cc1` [Compound 107] were, in that order, 48%, 85% and 97%.
In the same order, the values of `CC(C)(C)c1ccc(CN(C(=O)C(=O)O)c2ccc(-c3cccc(OC(F)(F)F)c3)cc2)cc1` [Compound 200] are 64%, 89% and 92%.
In the same order, the values of `CSc1ccc(CN(C(=O)C(=O)O)c2ccc(-c3ccc(OC(F)(F)F)cc3)cc2)cc1` [Compound 160] are 14%, 26% and 68%.
On to `COc1ccc(-c2ccc(N(Cc3ccc(C(C)(C)C)cc3)C(=O)C(=O)O)cc2)cc1` [Compound 126], for which, under setting [1], the inhibition at 5 µM is 16% and the inhibition at 10 µM is 43%.
The like results for `CCCCCCOc1ccc(-c2ccc(OC(F)(F)F)cc2)cc1N(CCCCc1ccccc1)C(=O)C(=O)O` [Compound 245] were, in that order, 93% and 97%.
Take `O=C(O)C(=O)N(Cc1ccc(-c2ccccc2)cc1)c1ccc(-c2ccc(OC(F)(F)F)cc2)cc1` [Compound 161]: under setting [1], the inhibition at 5 µM was determined as 27%, the inhibition at 10 µM is 62% and the inhibition at 25 µM is above 99%.
The like results for `O=C(O)C(=O)N(c1ccc(-c2ccc(OC(F)(F)F)cc2)cc1)C1CCCCC1` [Compound 253] were, in that order, 9%, 16% and 36%.
Consider `CC(C)(C)c1ccc(COc2cc(/C=C/C(=O)O)cc(Oc3ccc(OC(F)(F)F)cc3)c2)cc1` [Compound 409], for which, under setting [1], the inhibition at 5 µM is 26%, the inhibition at 10 µM was 59% and the inhibition at 25 µM was found to be 97%.
For the compound `CC(C)(C)c1ccc(Oc2cc(Oc3ccc(OC(F)(F)F)cc3)ccc2/C=C/C(=O)O)cc1` [Compound 89], under setting [1], the inhibition at 5 µM is 46%, the inhibition at 10 µM was determined as 87% and the inhibition at 25 µM turned out to be 95%.
The like results for `CCCOc1ccc(N(CCCc2ccccc2)C(=O)C(=O)O)cc1-c1ccc(OC(F)(F)F)cc1` [Compound 229] were, in that order, 48%, 80% and 94%.
As for `Cc1ccc(-c2ccccc2)cc1N(Cc1ccc(C(C)(C)C)cc1)C(=O)C(=O)O` [Compound 137], under setting [1], the inhibition at 10 µM is 5% and the inhibition at 25 µM came to 61%.
Turning to `CCCCc1ccc(-c2ccc(N(Cc3ccc(C(C)(C)C)cc3)C(=O)C(=O)O)cc2)cc1` [Compound 164], under setting [1], the inhibition at 5 µM was found to be 40%, the inhibition at 10 µM worked out at 79% and the inhibition at 25 µM stood at 96%.
The like results for `Cc1cc(-c2ccc(OC(F)(F)F)cc2)cc(/C=C/C(=O)O)c1OCc1ccc(C(C)(C)C)cc1` [Compound 83] were, in that order, 27%, 46% and 56%.
In the same order, the values of `O=C(O)CCc1cc(OCc2ccc(OC(F)(F)F)cc2)ccc1OCc1ccc(OC(F)(F)F)cc1` [Compound 404] are 14%, 31% and 84%.
In the case of `CC(C)(C)c1ccc(CN(C(=O)C(=O)O)c2ccc(-c3ccc(Cl)cc3)cc2)cc1` [Compound 135], under setting [1], the inhibition at 10 µM amounted to 6% and the inhibition at 25 µM turned out to be 67%.
As for `Cc1cc(N(C)C)c(-c2ccc(OC(F)(F)F)cc2)cc1N(CCCCc1ccccc1)C(=O)C(=O)O` [Compound 246], under setting [1], the inhibition at 5 µM is 79% and the inhibition at 10 µM is 96%.
In the case of `O=C(O)C(=O)N(Cc1ccc(OC(F)(F)F)cc1)c1ccc(-c2ccccc2)cc1` [Compound 183], under setting [1], the inhibition at 10 µM turned out to be 11% and the inhibition at 25 µM is 29%.
Regarding `CC(C)(C)c1ccc(CN(C(=O)C(=O)O)c2ccc(N3CCCCC3)c(-c3ccc(OC(F)(F)F)cc3)c2)cc1` [Compound 217], under setting [1], the inhibition at 5 µM amounted to 86% and the inhibition at 10 µM stood at 84%.
Consider `CC(C)(C)c1ccc(Oc2cc(-c3ccc(OC(F)(F)F)cc3)ccc2OC(F)(F)C(=O)O)cc1` [Compound 120], for which, under setting [1], the inhibition at 5 µM came to 59%, the inhibition at 10 µM is 87% and the inhibition at 25 µM was 98%.
For the compound `CC(C)(C)c1ccc(CN(C(=O)C(=O)O)c2c(Cl)cc(-c3ccc(OC(F)(F)F)cc3)cc2Cl)cc1` [Compound 173], under setting [1], the inhibition at 5 µM came out at 63%, the inhibition at 10 µM amounted to 95% and the inhibition at 25 µM is 90%.
The like results for `CCCCOc1ccc(-c2ccc(OC(F)(F)F)cc2)cc1N(CCCc1ccccc1)C(=O)C(=O)O` [Compound 235] were, in that order, 66%, 89% and 93%.
As for `CC(C)(C)c1ccc(CN(C(=O)C(=O)O)c2ccccc2Sc2ccc(OC(F)(F)F)cc2)cc1` [Compound 631], under setting [1], the inhibition at 5 µM is 58%, the inhibition at 10 µM turned out to be 86% and the inhibition at 25 µM turned out to be 86%.
`CC(C)(C)c1ccc(CN(C(=O)C(=O)O)c2ccc(Sc3ccc(OC(F)(F)F)cc3)cc2)cc1` [Compound 621]: under setting [1], the inhibition at 5 µM was determined as 67%, the inhibition at 10 µM is 95% and the inhibition at 25 µM is 91%.
The like results for `O=C(O)C(=O)N(Cc1c(Cl)cccc1Cl)c1ccc(-c2ccc(OC(F)(F)F)cc2)cc1` [Compound 171] were, in that order, 22%, 44% and 81%.
The like results for `CC(C)(C)c1ccc(CN(C(=O)C(=O)O)c2ccc(-c3ccc(C(C)(C)C)cc3)cc2)cc1` [Compound 163] were, in that order, 37%, 84% and above 99%.
